Assay results reported in patent US8637521B2, “Substituted piperazin-2,5-diones and their use as multifunctional bioactive compounds” (priority 2006, dated 2014).
Read-outs that look alike come from different tables or passages of the source. Square brackets hold non-standard residues; d marks the D form. Peptide text beside a SMILES is read from it. * marks the point of attachment. X1 = O=C(O)CC[C@@H]1NC(=O)[C@H](CCCCN*)NC1=O

Assays:
[1] = target: μ-receptor (isolated guinea pig ileum, GPI) (Cavia porcellus, UniProt P97266); assay: Peripheral opioid activity: inhibition of electrically-induced contractions of isolated guinea pig ileum (GPI); conditions: for Value of pD2 (M ± m): negative logarithm of EC50; for EC50: concentration reducing contraction amplitude by 50%, 5 replications
Chain of μ-receptor (isolated guinea pig ileum, GPI) (P97266 whole entry): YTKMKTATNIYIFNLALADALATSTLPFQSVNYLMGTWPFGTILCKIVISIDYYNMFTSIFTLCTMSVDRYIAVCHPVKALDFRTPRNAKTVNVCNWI
Description: The segment of GPI about 1 cm long was placed into a 10-ml organ bath containing Krebs solution at 34° C. […] Resting tension of the organ was 1 g. The segment of GPI was stimulated by single pulses duration 1 ms with 0.1 Hz at 80 V. The solution with isolated organs was constantly aerated. The contractions were recorded in an isometrical mode by a sensor K 30 (Hugo Sachs Elektronic KG) with paper register Rikadenki-series (Japan).
The substances tested were dissolved in distilled water and added cumulatively to the organ bath at a volume of 5 to 30 mcl. Each subsequent substance was added after the isolated organs were washed 3 or 4 times for 12-15 min. On the basis of the data obtained, dose-effects curves were plotted and the activity of substances was expressed by IC50 or pD2. The pD2 index was equal to a negative decimal logarithm of the substance concentration causing a 50% of the maximal effect.
New dermorphin analogues were tested in the standard model of Guinea pig ileum binding test.
For confirmation of opioid activity, the specific antagonist naloxson was used in concentration of 10^−5M. Each molecule was tested in 5 independent replications and relative activity was calculated as negative logarithm of EC50 (pD2).

BALB/c male mice = assay: Antinociceptive activity, tail flick test with heat radiation, intragastral or intraperitoneal; assay type: in vivo; conditions: for Effect duration: 15 min, cut-off 6 sec
Description: For estimation of oral activity of novel cyclopeptides of the present invention, the “tail flick” test was used. The results were compared with those obtained using intraperitoneal administration.
Antinociceptive activity of the peptides of the present invention was assessed in experiments on BALB/c male mice weighing 22 to 24 g. The peptides were dissolved in saline and administered intraperitoneally or intragastrally.
The “Tail flick” test (D'Amour, F. E. et al. “A Method for Determining Loss of Pain Sensation”, J. Pharmacol. Exp. Ther., Vol. 72, Pages 74 to 79, 1941) was performed on an analgesimeter type 812, Hugo Sachs Electronick KG. Antinociceptive activity was defined as the absence of tail flick response on stimulation with a focused bundle of heat radiation with 6 sec at baseline response of 2.0-3.0 seconds.
Statistical treatment of the results was carried out by the Student's paired t-test.

mice F1(CBAxC57D16) = assay: Analgesic activity, tail flick test, water 48° C., intraperitoneal; assay type: in vivo; conditions: Table 10; for Initial sensitivity level: before injection
Description: Two hundred and twenty mice F1(CBAxC57D16) first generation hybrids were used for testing of analgesic activity using the “tail flick” test. The water temperature was at 48° C. The maximal effect was for the period of 30 seconds. All peptides were injected intraperitoneally in the doses of 5, 10 or 20 mg/kg. Analgesic effect was estimated in the time interval of 15 to 120 min after peptide injection. Student's t-criterion was used for statistical calculations of the results. Statistical significance were at the level of p≦0.05.

[2] = Table 11, oral 50 mg/kg group, before administration
[3] = Table 12, intraperitoneal 10 mg/kg group, before injection
[4] = Table 12, intraperitoneal 10 mg/kg

CC(C)C[C@H](NC(=O)[C@H](Cc1ccccc1)NC(=O)CNC(=O)[C@@H](C)NC(=O)[C@@H](N)Cc1ccc(O)cc1)C(=O)N[C@@H](CCCNC(=N)N)C(=O)O [Compound 56, H-Tyr-D-Ala-Gly-Phe-Leu-Arg-OH] (H-Y[dA]GFLR-OH)
Value of pD2 (M ± m) [1]: 7.53 ± 0.22 | EC50 ([1]; read-out: Median EC50 in M): 50 nM

C[C@@H](NC(=O)[C@@H](N)Cc1ccc(O)cc1)C(=O)N[C@@H](Cc1ccccc1)C(=O)NCC(=O)N[C@@H](Cc1ccc(O)cc1)C(=O)N1CCC[C@H]1C(=O)N[C@@H](CO)C(N)=O [Compound 48, H-Tyr-D-Ala-Phe-Gly-Tyr-Pro-Ser-NH2]
Value of pD2 (M ± m) [1]: 8.56 ± 0.12 | EC50 ([1]; read-out: Median EC50 in M): 2.5 nM

Cyclo-[L-Lys(H-Tyr-D-Ala-Phe-D-Ala-Tyr-Pro-Ser)-L-Glu(L-Trp-OH)]
Initial sensitivity level, mean (BALB/c male mice; [2]): 2.2 ± 0.1 s | Initial sensitivity level, mean (BALB/c male mice; [3]): 2.1 ± 0.1 s | Effect duration (BALB/c male mice; [4]): 4.1 ± 0.4 s | Initial sensitivity level (mice F1(CBAxC57D16); 10 mg/kg group): 3.7 ± 0.2 s | Effect duration (mice F1(CBAxC57D16); 10 mg/kg i.p., 15 min): 6.8 ± 0.6 s | Effect duration (mice F1(CBAxC57D16); 10 mg/kg i.p., 30 min): 6.3 ± 0.7 s | Effect duration (mice F1(CBAxC57D16); 10 mg/kg i.p., 45 min): 8.4 ± 1.4 s | Effect duration (mice F1(CBAxC57D16); 10 mg/kg i.p., 60 min): 7.7 ± 1.7 s | Effect duration (mice F1(CBAxC57D16); 10 mg/kg i.p., 90 min): 6.7 ± 1.0 s | Effect duration (mice F1(CBAxC57D16); 10 mg/kg i.p., 120 min): 4.6 ± 0.3 s | Initial sensitivity level (mice F1(CBAxC57D16); 20 mg/kg group): 3.4 ± 0.2 s | Effect duration (mice F1(CBAxC57D16); 20 mg/kg i.p., 15 min): 7.8 ± 0.5 s | Effect duration (mice F1(CBAxC57D16); 20 mg/kg i.p., 30 min): 8.3 ± 0.8 s | Effect duration (mice F1(CBAxC57D16); 20 mg/kg i.p., 45 min): 8.7 ± 1.2 s | Effect duration (mice F1(CBAxC57D16); 20 mg/kg i.p., 60 min): 9.5 ± 1.2 s | Effect duration (mice F1(CBAxC57D16); 20 mg/kg i.p., 90 min): 9.7 ± 1.3 s | Effect duration (mice F1(CBAxC57D16); 20 mg/kg i.p., 120 min): 8.2 ± 1.7 s

C[C@@H](NC(=O)[C@H](Cc1ccccc1)NC(=O)[C@@H](C)NC(=O)[C@@H](N)Cc1ccc(O)cc1)C(=O)N[C@@H](Cc1ccc(O)cc1)C(=O)N1CCC[C@H]1C(=O)N[C@@H](CO)C(=O)NCCCC[C@@H]1NC(=O)[C@H](CCC(=O)N[C@@H](Cc2c[nH]c3ccccc23)C(=O)O)NC1=O [Compound 47, Cyclo-[L-Lys(H-Tyr-D-Ala-Phe-D-Ala-Tyr-Pro-Ser)-L-Glu(L-Trp-OH)]]
Value of pD2 (M ± m) [1]: 7.52 ± 0.07 | EC50 ([1]; read-out: Median EC50 in M): 33 nM

C[C@@H](NC(=O)[C@H](Cc1ccccc1)NC(=O)[C@@H](C)NC(=O)[C@@H](N)Cc1ccc(O)cc1)C(=O)N[C@@H](Cc1ccc(O)cc1)C(=O)N1CCC[C@H]1C(=O)N[C@@H](CO)C(=O)NCCCC[C@@H]1NC(=O)[C@H](CCC(=O)N[C@@H](Cc2c[nH]c3ccccc23)C(N)=O)NC1=O [Compound 46, Cyclo-[L-Lys(H-Tyr-D-Ala-Phe-D-Ala-Tyr-Pro-Ser)-L-Glu(L-Trp-NH2)]]
Value of pD2 (M ± m) [1]: 7.96 ± 0.02 | EC50 ([1]; read-out: Median EC50 in M): 11 nM

COc1cccc(C2(O)CCCCC2CN(C)C)c1 (centres unmarked) [Tramadol]
Initial sensitivity level, mean (BALB/c male mice; [2]): 2.6 ± 0.1 s | Effect duration (BALB/c male mice; Table 11, oral 50 mg/kg): 2.6 ± 0.1 s

C[C@@H](NC(=O)[C@H](Cc1ccccc1)NC(=O)[C@@H](C)NC(=O)[C@@H](N)Cc1ccc(O)cc1)C(=O)N[C@@H](Cc1ccc(O)cc1)C(=O)N1CCC[C@H]1C(=O)N[C@@H](CO)C(N)=O [Compound 49, H-Tyr-D-Ala-Phe-D-Ala-Tyr-Pro-Ser-NH2] (H-Y[dA]F[dA]YPS-NH2)
Value of pD2 (M ± m) [1]: 7.55 ± 0.11 | EC50 ([1]; read-out: Median EC50 in M): 30 nM

COC(=O)[C@H](Cc1c[nH]c2ccccc12)NC(=O)CC[C@@H]1NC(=O)[C@H](CCCCNC(=O)[C@@H](C)NC(=O)[C@H](Cc2ccccc2)NC(=O)[C@@H](C)NC(=O)[C@@H](N)Cc2ccc(O)cc2)NC1=O [Compound 45, Cyclo-[L-Lys(H-Tyr-D-Ala-Phe-D-Ala)-L-Glu(L-Trp-OMe)]]
Value of pD2 (M ± m) [1]: 5.68 ± 0.09 | EC50 ([1]; read-out: Median EC50 in M): 2000 nM

Cyclo-[L-Lys(H-Tyr-D-Ala-Phe-D-Ala-Tyr-Pro-Ser)-L-Glu(L-Trp-NH2)]
Initial sensitivity level, mean (BALB/c male mice; [2]): 2.7 ± 0.1 s | Initial sensitivity level, mean (BALB/c male mice; [3]): 2.1 ± 0.1 s | Effect duration (BALB/c male mice; [4]): 3.9 ± 0.8 s | Initial sensitivity level (mice F1(CBAxC57D16); 10 mg/kg group): 3.2 ± 0.3 s | Effect duration (mice F1(CBAxC57D16); 10 mg/kg i.p., 15 min): 11.6 ± 1.7 s | Effect duration (mice F1(CBAxC57D16); 10 mg/kg i.p., 30 min): 15.5 ± 1.6 s | Effect duration (mice F1(CBAxC57D16); 10 mg/kg i.p., 45 min): 15.7 ± 1.2 s | Effect duration (mice F1(CBAxC57D16); 10 mg/kg i.p., 60 min): 13.0 ± 1.5 s | Effect duration (mice F1(CBAxC57D16); 10 mg/kg i.p., 90 min): 9.9 ± 1.5 s | Effect duration (mice F1(CBAxC57D16); 10 mg/kg i.p., 120 min): 6.8 ± 0.5 s | Initial sensitivity level (mice F1(CBAxC57D16); 20 mg/kg group): 3.0 ± 0.2 s | Effect duration (mice F1(CBAxC57D16); 20 mg/kg i.p., 15 min): 1.4 ± 1.6 s | Effect duration (mice F1(CBAxC57D16); 20 mg/kg i.p., 30 min): 18.1 ± 2.3 s | Effect duration (mice F1(CBAxC57D16); 20 mg/kg i.p., 45 min): 16.8 ± 2.2 s | Effect duration (mice F1(CBAxC57D16); 20 mg/kg i.p., 60 min): 12.7 ± 1.8 s | Effect duration (mice F1(CBAxC57D16); 20 mg/kg i.p., 90 min): 11.7 ± 1.2 s | Effect duration (mice F1(CBAxC57D16); 20 mg/kg i.p., 120 min): 6.3 ± 0.6 s

C[C@@H](NC(=O)[C@H](Cc1ccc(O)cc1)NC(=O)[C@@H](N)CCCNC(=N)N)C(=O)N[C@@H](Cc1ccccc1)C(=O)NCC(=O)O [Compound 52, Arg-Tyr-D-Ala-Phe-Gly-OH] (H-RY[dA]FG-OH; N-terminus assumed)
EC50 ([1]; read-out: Median EC50): 3000 nM | Value of pD2 (M ± m) [1]: 5.50 ± 0.07

C[C@@H](NC(=O)[C@H](Cc1ccccc1)NC(=O)[C@@H](C)NC(=O)[C@H](Cc1ccc(O)cc1)NC(=O)[C@@H](N)CCCNC(=N)N)C(=O)O [Compound 53, H-Arg-Tyr-D-Ala-Phe-D-AlaOH] (H-RY[dA]F[dA]-OH)
Initial sensitivity level, mean (BALB/c male mice; [3]): 2.4 ± 0.1 s | Effect duration (BALB/c male mice; [4]): 2.7 ± 0.1 s | Value of pD2 (M ± m) [1]: 6.06 ± 0.12 | EC50 ([1]; read-out: Median EC50 in M): 1000 nM

C[C@@H](NC(=O)[C@H](Cc1ccccc1)NC(=O)[C@@H](C)NC(=O)[C@@H](N)Cc1ccc(O)cc1)C(=O)NCCCC[C@@H]1NC(=O)[C@H](CCC(=O)O)NC1=O [Compound 44, Cyclo-[L-Lys(H-Tyr-D-Ala-Phe-D-Ala)-L-Glu(OH)]] (H-Y[dA]F[dA]-X1)
Value of pD2 (M ± m) [1]: 6.15 ± 0.10 | EC50 ([1]; read-out: Median EC50 in M): 570 nM
